Assay results as given in patent US20260285850A1, “SUBSTITUTED OXAZOLIDINONES AND IMIDAZOLINONES AS HERBICIDES” (FMC CORPORATION, priority 2023, published 2026).

Tests used:
Format in all cases: in vivo
[1] = system: sedge, umbrella (small-flower umbrella sedge, Cyperus difformis); test: Test B flooded paddy test, visual plant response rating 0-100; settings: 250 g ai/ha, Flood, applied to paddy water, evaluated after 13 days
Outline: (§1)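 2-leaf plants; flood 3 cm over soil; compound dosed into paddy water; depth kept constant; greenhouse 13 d; visual scoring vs controls. Dash = no result.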

[2] = system: ducksalad (Heteranthera limosa); test: as above; settings: 250 g ai/ha, Flood, applied to paddy water, evaluated after 13 days
Outline: as §1

rice (Oryza sativa) = test: as above; settings: 250 g ai/ha, Flood, applied to paddy water, evaluated after 13 days
Outline: as §1

[3] = system: barnyardgrass (Echinochloa crusgalli); test: as above; settings: 250 g ai/ha, Flood, applied to paddy water, evaluated after 13 days
Outline: as §1

[4] = system: barnyardgrass (Echinochloa crus-galli); test: Test A postemergence application, visual injury rating 0-100; settings: 10 days
Outline: (§2)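 Preemergence directed soil spray or postemergence spray (2-10 cm, 1-2 leaf); loam/sand mix; compound in non-phytotoxic solvent + surfactant. Greenhouse, 10 d. Visual injury vs untreated, 0 = none, 100 = complete control.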

[5] = system: blackgrass (Alopecurus myosuroides); test: as above; settings: 10 days
Outline: as §2

soybean (Glycine max) [6] = test: as above; settings: 10 days
Outline: as §2

[7] = system: ragweed (common ragweed, Ambrosia artemisiifolia); test: as above; settings: 10 days
Outline: as §2

kochia (Bassia scoparia) [8] = test: as above; settings: 10 days
Outline: as §2

[9] = system: palmer (palmer amaranth, palmer pigweed, Amaranthus palmeri); test: as above; settings: 10 days
Outline: as §2

[10] = system: wheat (Triticum aestivum); test: as above; settings: 10 days
Outline: as §2

[11] = system: oat, wild (wild oat, Avena fatua); test: as above; settings: 10 days
Outline: as §2

[12] = system: horseweed (Erigeron canadensis); test: as above; settings: 10 days
Outline: as §2

[13] = system: green foxtail (Setaria viridis); test: as above; settings: 10 days
Outline: as §2

[14] = system: ryegrass, Italian (italian ryegrass, Lolium multiflorum); test: as above; settings: 10 days
Outline: as §2

corn (Zea mays) [15] = test: as above; settings: 10 days
Outline: as §2

[16] = system: barnyardgrass (Echinochloa crus-galli); test: Test A preemergence soil spray, visual injury rating 0-100; settings: 10 days, 0 = no effect, 100 = complete control
Outline: as §2

[17] = system: blackgrass (Alopecurus myosuroides); test: as above; settings: 10 days, 0 = no effect, 100 = complete control
Outline: as §2

soybean (Glycine max) [18] = test: as above; settings: 10 days, 0 = no effect, 100 = complete control
Outline: as §2

[19] = system: ragweed (common ragweed, Ambrosia artemisiifolia); test: as above; settings: 10 days, 0 = no effect, 100 = complete control
Outline: as §2

kochia (Bassia scoparia) [20] = test: as above; settings: 10 days, 0 = no effect, 100 = complete control
Outline: as §2

[21] = system: palmer (palmer amaranth, palmer pigweed, Amaranthus palmeri); test: as above; settings: 10 days, 0 = no effect, 100 = complete control
Outline: as §2

[22] = system: wheat (Triticum aestivum); test: as above; settings: 10 days, 0 = no effect, 100 = complete control
Outline: as §2

[23] = system: oat, wild (wild oat, Avena fatua); test: as above; settings: 10 days, 0 = no effect, 100 = complete control
Outline: as §2

[24] = system: green foxtail (Setaria viridis); test: as above; settings: 10 days, 0 = no effect, 100 = complete control
Outline: as §2

[25] = system: ryegrass, Italian (italian ryegrass, Lolium multiflorum); test: as above; settings: 10 days, 0 = no effect, 100 = complete control
Outline: as §2

corn (Zea mays) [26] = test: as above; settings: 10 days, 0 = no effect, 100 = complete control
Outline: as §2

[27] = 31 g ai/ha, postemergence, 0 = no effect, 100 = complete control
[28] = Postemergence, 125 g ai/ha, 0 is no effect, 100 is complete control

## CC1(C(=O)NC2CC=C(C(=O)O)C2)CN(c2cc(F)cc(F)c2)C(=O)O1 [Compound 38, (4S)-4-[[[3-(3,5-difluorophenyl)-5-methyl-2-oxo-5-oxazolidinyl]carbonyl]amino]-1-cyclopentene-1-carboxylate acid]
[1]
  Plant response rating, Sedge, Umbrella (0 to 100 scale, 0 is no effect and 100 is complete control): 95
[2]
  Plant response rating, Ducksalad (0 to 100 scale, 0 is no effect and 100 is complete control): 55
Rice (Oryza sativa)
  Plant response rating, Rice (0 to 100 scale, 0 is no effect and 100 is complete control): 70
[3]
  Plant response rating, Barnyardgrass (0 to 100 scale, 0 is no effect and 100 is complete control): 55
[4]; [27]
  Barnyardgrass plant response rating (0-100): 90
[4]; [28]
  Barnyardgrass plant response rating (0 to 100 scale): 100
[5]; [27]
  Blackgrass plant response rating (0-100): 40
[5]; [28]
  Blackgrass plant response rating (0 to 100 scale): 90
Soybean (Glycine max) [6]; [27]
  Soybean plant response rating (0-100): 60
Soybean (Glycine max) [6]; [28]
  Soybean plant response rating (0 to 100 scale): 80
[7]; [27]
  Ragweed plant response rating (0-100): 20
[7]; [28]
  Ragweed plant response rating (0 to 100 scale): 50
Kochia (Bassia scoparia) [8]; [27]
  Kochia plant response rating (0-100): 80
Kochia (Bassia scoparia) [8]; [28]
  Kochia plant response rating (0 to 100 scale): 80
[9]; [27]
  Amaranth, Palmer plant response rating (0-100): 40
[9]; [28]
  Amaranth, Palmer / Pigweed, Palmer plant response rating (0 to 100 scale): 100
[10]; [27]
  Wheat plant response rating (0-100): 90
[10]; [28]
  Wheat plant response rating (0 to 100 scale): 90
[11]; [27]
  Oat, Wild plant response rating (0-100): 90
[11]; [28]
  Oat, Wild plant response rating (0 to 100 scale): 90
[12]; [27]
  Horseweed plant response rating (0-100): 30
[12]; [28]
  Horseweed plant response rating (0 to 100 scale): 70
[13]; [27]
  Foxtail, Green plant response rating (0-100): 90
[13]; [28]
  Foxtail, Green plant response rating (0 to 100 scale): 90
[14]; [27]
  Ryegrass, Italian plant response rating (0-100): 70
[14]; [28]
  Ryegrass, Italian plant response rating (0 to 100 scale): 90
Corn (Zea mays) [15]; [27]
  Corn plant response rating (0-100): 90
Corn (Zea mays) [15]; [28]
  Corn plant response rating (0 to 100 scale): 100
[16]; 31 g ai/ha
  Barnyardgrass plant response rating (0-100): 0
[16]; 125 g ai/ha
  Barnyardgrass plant response rating (0 to 100 scale): 40
[17]; 31 g ai/ha
  Blackgrass plant response rating (0-100): 0
[17]; 125 g ai/ha
  Blackgrass plant response rating (0 to 100 scale): 50
Soybean (Glycine max) [18]; 31 g ai/ha
  Soybean plant response rating (0-100): 10
Soybean (Glycine max) [18]; 125 g ai/ha
  Soybean plant response rating (0 to 100 scale): 80
[19]; 31 g ai/ha
  Ragweed plant response rating (0-100): 0
[19]; 125 g ai/ha
  Ragweed plant response rating (0 to 100 scale): 0
Kochia (Bassia scoparia) [20]; 31 g ai/ha
  Kochia plant response rating (0-100): 0
Kochia (Bassia scoparia) [20]; 125 g ai/ha
  Kochia plant response rating (0 to 100 scale): 20
[21]; 31 g ai/ha
  Amaranth, Palmer plant response rating (0-100): 0
[21]; 125 g ai/ha
  Amaranth, Palmer plant response rating (0 to 100 scale): 70
[22]; 31 g ai/ha
  Wheat plant response rating (0-100): 40
[22]; 125 g ai/ha
  Wheat plant response rating (0 to 100 scale): 90
[23]; 31 g ai/ha
  Oat, Wild plant response rating (0-100): 0
[23]; 125 g ai/ha
  Oat, Wild plant response rating (0 to 100 scale): 60
[24]; 31 g ai/ha
  Foxtail, Green plant response rating (0-100): 0
[24]; 125 g ai/ha
  Foxtail, Green plant response rating (0 to 100 scale): 20
[25]; 31 g ai/ha
  Ryegrass, Italian plant response rating (0-100): 0
[25]; 125 g ai/ha
  Ryegrass, Italian plant response rating (0 to 100 scale): 90
Corn (Zea mays) [26]; 31 g ai/ha
  Corn plant response rating (0-100): 0
Corn (Zea mays) [26]; 125 g ai/ha
  Corn plant response rating (0 to 100 scale): 90
